Read-outs that look alike come from different tables or passages of the source.
How the values were obtained:
neuronal MAO = assay: Ex vivo MAO activity after i.p. injection in rats, neuronal MAO; parameters: species or system rat; details: AFMBA 100 mg/kg i.p., 18 hours
Description: (§1) Rats were injected with AFHBA (0.5 mg/kg, i.p.) alone or with AFHBA (0.5 mg/kg, i.p.) in combination with MFMD (2.0 mg/kg, i.p.) administered 30 minutes before AFHBA. Animals were killed 18 hours later and MAO activity (5-HT and phenethylamine as substrates) was determined in brain, heart, and liver. In the brain, AFHBA administered alone inhibited neuronal MAO by 72% and non-neuronal MAO by 37%.
(§2) III. Rats were injected with AFMBA (100 mg/kg, i.p.) and were killed 18 hours later. MAO activity was determined in the brain, heart, and liver using 5-HT and PEA.

non-neuronal MAO = assay: Ex vivo MAO activity after i.p. injection in rats, non-neuronal MAO; parameters: species or system rat; details: AFMBA 100 mg/kg i.p., 18 hours
Description: as §1, §2

MAO [1] = details: literature; cited from earlier work
[2] = tested on: brain noradrenaline and 5-HT concentrations; assay: Brain amine concentration after 5 days oral MAO inhibitor in rats (Table I); format: in vivo, rat; details: for Brain Amine Concentration, 5-HT / Brain Amine Concentration, Noradrenaline: 5 days
Description: On the 6th day, rats were anaesthetized and heart rate and blood pressure responses to tyramine (0.3-50 mg/kg) administered intraduodenally (i.d.) were determined. Additionally, monoamines and MAO activity were determined in various tissues including brain.

[3] = tested on: heart rate and blood pressure responses to tyramine; assay: Potentiation of tyramine response after 5 days oral MAO inhibitor in rats (Table I); format: in vivo, rat; details: for Tyramine Potentiation: 5 days, tyramine i.d.
Description: (A) Rats were gavaged daily for 5 days with saline or 2-amino-4-fluoro-3-(3'-hydroxyphenyl)-3-butenoic acid (AFHBA) at dosages of 15.6, 62.5, 250, or 1000 μg/kg or with clorgyline at dosages of 1250 or 5000 μg/kg. On the 6th day, rats were anaesthetized and heart rate and blood pressure responses to tyramine (0.3-50 mg/kg) administered intraduodenally (i.d.) were determined. Additionally, monoamines and MAO activity were determined in various tissues including brain.

MAO-A = details: literature; cited from earlier work
depression = details: literature; cited from earlier work
MAO-B = details: literature; cited from earlier work
MAO [4] = assay: In vitro MAO inhibition; format: biochemical
cheese effect = details: low dosages where preferential inhibition of MAO-B occurs; cited from earlier work
MAO [5] = assay: Ex vivo MAO activity in rats, protection by extracerebral AADC inhibitor; parameters: species or system rat; details: carbidopa 50 mg/kg i.p. with AFHBA, compared with MFMD 2.0 mg/kg i.p., heart
Description: as §1
MAO activity was determined in the brain using 5-HT and phenethylamine (PEA) as substrates.

[6] = tested on: brain noradrenaline and 5-HT concentrations; assay: Brain amine concentration, AFHBA with or without carbidopa pretreatment in rats (Table II); format: in vivo, rat; details: for Brain Amine Concentration, 5-HT / Brain Amine Concentration, Noradrenaline: 5 days
Description: (§3) (B) Rats were gavaged with saline or carbidopa given at dosage of 10 or 100 mg/kg. Thirty minutes later, the rats were gavaged with saline or AFHBA given at a dosage of 62.5 μg/kg. This treatment was repeated daily for 5 days. On the 6th day, the rats were anaesthetized and heart rate and blood pressure responses to tyramine (0.3-50 mg/kg, i.d.) were determined. Additionally, monoamines and MAO activity were determined in various tissues, including brain.

[7] = tested on: heart rate and blood pressure responses to tyramine; format: in vivo, rat; details: for Tyramine Potentiation: 5 days, tyramine i.d.
Description: as §3

[8] = Clorgyline 1250 μg/kg daily p.o.
[9] = Clorgyline 5000 μg/kg daily p.o.
[10] = carbidopa alone 10000 μg/kg daily p.o.
[11] = carbidopa alone 100000 μg/kg daily p.o.

SMILES: COc1ccc(C(=CF)C(N)C(=O)O)cc1O (centres unmarked) [AFMBA, 2-amino-4-fluoro-3-(3'-hydroxy-4-methoxyphenyl)-3-butenoic acid]
- % Inhibition of MAO, Neuronal (neuronal MAO; brain): 16%
- % Inhibition of MAO, Neuronal (neuronal MAO; heart): 18%
- % Inhibition of MAO, Neuronal (neuronal MAO; liver): 2%
- % Inhibition of MAO, Non-neuronal (non-neuronal MAO; brain): 40%
- % Inhibition of MAO, Non-neuronal (non-neuronal MAO; heart): 46%
- % Inhibition of MAO, Non-neuronal (non-neuronal MAO; liver): 11%

SMILES: NNCCc1ccccc1 [phenelzine]
- preference of action upon MAO (MAO [1]): not preferential in their action upon MAO

SMILES: C#CCN(C)CCCOc1ccc(Cl)cc1Cl [Clorgyline, reference compound]
- Brain Amine Concentration, 5-HT [2, 8]: 620 ± 34 ng/g
- Brain Amine Concentration, Noradrenaline [2, 8]: 351 ± 11 ng/g
- Brain Amine Concentration, 5-HT [2, 9]: 1027 ± 82 ng/g
- Brain Amine Concentration, Noradrenaline [2, 9]: 329 ± 19 ng/g
- brain noradrenaline and 5-HT concentrations (dose relation) ([2]; subacute treatment): dose-related increases in brain noradrenaline and 5-HT concentrations
- Tyramine Potentiation ([3]; Clorgyline 1250 μg/kg daily p.o., some potentiation at lowest doses of tyramine (footnote c)): 1.0
- Tyramine Potentiation [3, 9]: 5.0
- potentiation of the tyramine response (dose relation) ([3]; subacute treatment): potentiation of the tyramine response
- preferential inhibition of MAO-A (MAO-A): preferentially inhibited
- selectivity at lower versus higher dosages (MAO [1]): selective inhibitors at lower dosages, but are not selective inhibitors at higher dosages
- clinical antidepressant effect (depression): clinically effective antidepressant agents

SMILES: C#CCN(C)Cc1ccccc1 [pargyline]
- preferential inhibition of MAO-B (MAO-B): preferentially inhibited
- selectivity at lower versus higher dosages (MAO [1]): selective inhibitors at lower dosages, but are not selective inhibitors at higher dosages
- clinical antidepressant effect (depression): clinically effective antidepressant agents

SMILES: Cc1cc(C(=O)NNCc2ccccc2)no1 [isocarboxazid]
- preference of action upon MAO (MAO [1]): not preferential in their action upon MAO

SMILES: NCC(=CF)c1cccc(O)c1 [2-(3'-hydroxy)phenyl-3-fluoroallylamine]
- MAO inhibition type (MAO [4]): time-dependent irreversible inhibitor
- IC50 (MAO [4]; unit inferred): ~1 nM

SMILES: C#CCN(C)[C@H](C)Cc1ccccc1 [L-deprenyl]
- clinical antidepressant effect (depression): clinically effective antidepressant agents
- cheese effect (cheese effect): not observed

SMILES: N[C@@H]1C[C@H]1c1ccccc1 (relative stereo) [tranylcypromine]
- preference of action upon MAO (MAO [1]): not preferential in their action upon MAO

SMILES: C[C@@](Cc1ccc(O)c(O)c1)(NN)C(=O)O [Carbidopa, reference compound]
- protective effect against inhibition of MAO in the heart (MAO [5]): same protective effect against inhibition of MAO in the heart as MFMD
- elevation of brain monoamines on coadministration with AFHBA ([6]; carbidopa 10 mg/kg + AFHBA 62.5 μg/kg): significantly enhanced the elevation of brain monoamines
- effectiveness of AFHBA to raise brain monoamines on coadministration ([6]; carbidopa 100 mg/kg + AFHBA): reduced the effectiveness of AFHBA to raise brain monoamines
- Brain Amine Concentration, 5-HT [6, 10]: 599 ± 31 ng/g
- Brain Amine Concentration, Noradrenaline [6, 10]: 366 ± 3 ng/g
- Brain Amine Concentration, 5-HT [6, 11]: 443 ± 19 ng/g
- Brain Amine Concentration, Noradrenaline [6, 11]: 271 ± 19 ng/g
- effect on tyramine response ([7]; carbidopa alone 10 mg/kg): no effect on tyramine response
- Tyramine Potentiation [7, 10]: 1.1
- Tyramine Potentiation [7, 11]: 2.3
- effect on tyramine response ([7]; carbidopa alone 100 mg/kg): potentiated the tyramine response
